# Results published in patent US20050171358A1 (priority 2002, published 2005).
# How the values were obtained:
# Pyricularia oryzae = assay type: in vivo; conditions: 200 ppm spray on rice (Koshihikari, 3 leaf stage), inoculated next day; lesion numbers on third leaves after 7 days in green house, graded by Table 5
# [1] = test system: Colletotrichum lagenarium; conditions: 200 ppm spray on cucumber (3 leaf stage), inoculated next day; lesion numbers on first and second leaves after 7 days in green house, graded by Table 5
Structure (SMILES),Evaluation (effect for rice blast) (Pyricularia oryzae),Evaluation (effect for cucumber anthracnose) [1]
"O=C(NCc1cc(-c2ccccc2)no1)c1ccc(OC(F)(F)F)cc1 [III-139, N-[(3-phenyl-5-isoxazolyl)methyl]-4-trifluoromethoxybenzamide]",5 (0),5 (0)
"COc1ccc(C(=O)NCc2cc(-c3ccccc3)no2)cc1OC [III-156, N-[(3-phenyl-5-isoxazolyl)methyl]-3,4-dimethoxybenzamide]",4 (1˜5),4 (1˜5)
"Cc1ccc(-c2cc(CNC(=O)c3ccc(C)c(F)c3)on2)cc1 [III-162, N-[(3-(4-tolyl)-5-isoxazolyl)methyl]-3-fluoro-4-methylbenzamide]",5 (0),5 (0)
"O=C(NCc1cc(-c2ccccc2)no1)c1ccccn1 [III-174, (3-phenyl-5-isoxazolyl)methylaminocarbonyl-2-pyridine]",4 (1˜5),4 (1˜5)
"O=C(NCc1cc(-c2ccccc2)no1)c1cccs1 [III-177, (3-phenyl-5-isoxazolyl)methylaminocarbonyl-2-thiophene]",4 (1˜5),4 (1˜5)
"O=C(NCc1cc(-c2ccccc2)no1)c1ccc2c(c1)OCO2 [III-180, 5-(3-phenyl-5-isoxazolyl)methylaminocarbonyl-1,3-benzodioxol]",5 (0),5 (0)
"O=C(/C=C/c1ccccc1)NCc1cc(-c2ccccc2)no1 [III-201, (E)-N-[(3-phenyl-5-isoxazolyl)methyl]-3-phenylpropenamide]",5 (0),5 (0)
"O=C(NCc1cc(-c2ccccc2)no1)N1CCc2ccccc21 [III-208, N-[(3-phenyl-5-isoxazolyl)methylaminocarbonyl]indoline]",4 (1˜5),4 (1˜5)
"Cc1ccc(C(=O)NCc2cc(/C=C/c3ccccc3)no2)cc1 [III-210, N-{[3-(2-phenylethenyl)-5-isoxazolyl)methyl]-4-methylbenzamide]",5 (0),5 (0)
CO/N=C/c1ccc(-c2cc(CNC(=O)c3ccc(C)cc3)on2)cc1 [III-214],4 (1˜5),5 (0)
"COc1ccc(C(=O)NCc2cc(-c3ccc(OC)cc3F)no2)cc1 [III-215, N-{[3-(2-fluoro-4-methoxyphenyl)-5-isoxazolyl]methyl}-4-methoxylbenzamide]",5 (0),5 (0)
"COc1ccc(C(=O)NCc2cc(C=C(C)C)no2)cc1 [III-216, N-{[3-(2-methyl-1-propenyl)-5-isoxazolyl]methyl}-4-methoxylbenzamide]",4 (1˜5),4 (1˜5)
"Cc1ccc(C(=O)NCc2cc(-c3ccccn3)no2)cc1 [III-217, N-{[3-(2-pyridyl)-5-isoxazolyl]methyl}-4-methylbenzamide]",4 (1˜5),4 (1˜5)
"Cc1ccc(C(=O)NCc2cc(-c3cccnc3)no2)cc1 [III-218, N-{[3-(3-pyridyl)-5-isoxazolyl]methyl}-4-methylbenzamide]",3 (6˜10),4 (1˜5)
"Cc1ccc(C(=O)NCc2cc(-c3ccncc3)no2)cc1 [III-219, N-{[3-(4-pyridyl)-5-isoxazolyl]methyl}-4-methylbenzamide]",3 (6˜10),3 (6˜10)
"COc1ccc(C(=O)NCc2cc(-c3ccsc3)no2)cc1 [III-220, N-{[3-(3-thienyl)-5-isoxazolyl]methyl}-4-methoxylbenzamide]",3 (6˜10),3 (6˜10)
"C/C=C/C=C/c1cc(CNC(=O)c2ccc(OC)cc2)on1 [III-221, N-{[3-(1,3-pentadienyl)-5-isoxazolyl]methyl}-4-methoxylbenzamide]",2 (11˜20),2 (11˜20)
"COc1ccc(C(=O)NCc2cc(-c3cc4ccccc4n3C)no2)cc1 [III-223, N-{[3-(1-methylindol-2-yl)-5-isoxazolyl]methyl}-4-methoxybenzamide]",5 (0),5 (0)
"COc1ccc(C(=O)NCc2cc(-c3nc4ccccc4s3)no2)cc1 [III-224, N-{[3-(benzo[d]thiazol-2-yl)-5-isoxazolyl]methyl}-4-methoxybenzamide]",2 (11˜20),2 (11˜20)
"COc1ccc(C(=O)NCc2cc(C(C)C)no2)cc1 [III-225, N-[(3-isopropyl-5-isoxazolyl)methyl]-4-methoxybenzamide]",4 (1˜5),4 (1˜5)

Structure (SMILES),Evaluation (effect for rice blast) (Pyricularia oryzae),Evaluation (effect for cucumber anthracnose) [1]
"Cc1ccc(-c2cc(CNC(=O)C3CCCC3)on2)cc1 [III-227, N-{[3-(4-tolyl)-5-isoxazolyl]methyl}cyclopentanecarboxamide]",5 (0),5 (0)
"Cc1ccc(-c2cc(CNC(=O)C3CCC3)on2)cc1 [III-228, N-{[3-(4-tolyl)-5-isoxazolyl]methyl}cyclobutanecarboxamide]",4 (1˜5),3 (6˜10)
"COc1ccc(C(=O)NCc2cc(CC(C)C)no2)cc1 [III-229, N-[(3-isobutyl-5-isoxazolyl)methyl]-4-methoxybenzamide]",5 (0),5 (0)
"CCC(CC)c1cc(CNC(=O)c2ccc(OC)cc2)on1 [III-230, N-{[3-(1-ethylpropyl)-5-isoxazolyl]methyl}-4-methoxybenzamide]",5 (0),5 (0)
"COc1ccc(C(=O)NCc2cc(-c3ccccc3Cl)no2)cc1 [III-231, N-{[3-(2-chlorophenyl)-5-isoxazolyl]methyl}-4-methoxybenzamide]",5 (0),5 (0)
"COc1ccc(C(=O)NCc2cc(-c3nc(-c4ccccc4)no3)no2)cc1 [III-232, N-{[3-(3-phenyl-1,2,4-oxadiazol-5-yl)-5-isoxazolyl]methyl]-4-methoxybenzamide]",3 (6˜10),2 (11˜20)
"CCCCc1cc(CNC(=O)c2ccc(OC)cc2)on1 [III-235, N-[(3-butyl-5-isoxazolyl)methyl]-4-methoxybenzamide]",4 (1˜5),4 (1˜5)
"CCC(C)c1cc(CNC(=O)c2ccc(OC)cc2)on1 (centres unmarked) [III-236, N-[(3-sec-butyl-5-isoxazolyl)methyl]-4-methoxybenzamide]",4 (1˜5),4 (1˜5)
"COc1ccc(C(=O)NCc2cc(C(C)(C)C)no2)cc1 [III-237, N-[(3-tert-butyl-5-isoxazolyl)methyl]-4-methoxybenzamide]",3 (6˜10),3 (6˜10)
"COc1ccc(C(=O)NCc2cc(C3CCCCC3)no2)cc1 [III-238, N-[(3-cyclohexyl-5-isoxazolyl)methyl]-4-methoxybenzamide]",4 (1˜5),5 (0)
"Cc1ccc(-c2cc(CNC(=O)c3cc(Cl)nc(Cl)c3)on2)cc1 [III-240, N-{[3-(4-tolyl)-5-isoxazolyl]methyl}-2,6-dichloropyridine-4-carboxamide]",2 (11˜20),2 (11˜20)
"CC(C)c1cc(CNC(=O)c2cc(Cl)nc(Cl)c2)on1 [III-243, N-[(3-isopropyl-5-isoxazolyl)methyl]-2,6-dichloropyridine-4-carboxamide]",2 (11˜20),1 (21˜41)
"CCCc1cc(CNC(=O)c2ccc(OC)cc2)on1 [III-245, N-[(3-propyl-5-isoxazolyl)methyl]-4-methoxybenzamide]",5 (0),5 (0)
"CCCC(C)c1cc(CNC(=O)c2ccc(OC)cc2)on1 (centres unmarked) [III-246, N-[(3-sec-pentyl-5-isoxazolyl)methyl]-4-methoxybenzamide]",3 (6˜10),3 (6˜10)
"COc1ccc(C(=O)NCc2cc(-c3ccc(C)o3)no2)cc1 [III-247, N-{[3-(2-methylfuran-5-yl)-5-isoxazolyl]methyl}-4-methoxybenzamide]",5 (0),5 (0)
"CCCCCC#Cc1cc(CNC(=O)c2ccc(OC)cc2)on1 [III-248, N-{[3-(1-heptynyl)-5-isoxazolyl]methyl}-4-methoxybenzamide]",3 (6˜10),2 (11˜20)
"COc1ccc(C(=O)NCc2cc(C(OC)OC)no2)cc1 [III-249, N-[(3-dimethoxymethyl-5-isoxazolyl)methyl]-4-methoxybenzamide]",2 (11˜20),2 (11˜20)
"COc1ccc(C(=O)NCc2cc(ON=C(C)C)no2)cc1 [III-250, N-[(3-isopropyliminoxy-5-isoxazolyl)methyl]-4-methoxybenzamide]",2 (11˜20),2 (11˜20)
"Cc1ccc(C(=O)NCc2cc(CC(C)C)no2)cc1 [III-251, N-[(3-isobutyl-5-isoxazolyl)methyl]-4-methylbenzamide]",5 (0),5 (0)
"CC(C)Cc1cc(CNC(=O)c2ccc(Cl)cc2)on1 [III-252, N-[(3-isobutyl-5-isoxazolyl)methyl]-4-chlorobenzamide]",5 (0),5 (0)
